Experimental data from PubChem BioAssay AID248 (DTP/NCI, 2004).
Several values for one entry are separate records, joined by “and”; a condition that tells them apart may be missing. Equal values may be shown once. Toxic doses and inconclusive results are not listed. Rule as the data show it: active = T/C of 150% or more; inactive = T/C below 125%.

System: L1210 leukemia ip in BDF1 mice, survival T/C
Experiment: NCI In Vivo Anticancer Drug Screen. Data for tumor model L1210 Leukemia (intraperitoneal) in B6D2F1 (BDF1) mice
Details: endpoint: mean survival time, higher = longer survival
How it was run: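 Tumor cells were implanted, animals were treated, and survival was followed. The result divides the treated measurement by the vehicle-control measurement.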

[1] = dose: 100.0 mg/kg/injection, schedule: Q01DX009 (ip), vehicle: Klucel (hydroxypropylcellulose) (HPC)
[2] = dose: 100.0 mg/kg/injection, schedule: Q04DX002 (ip), vehicle: Klucel (hydroxypropylcellulose) (HPC)
[3] = dose: 200.0 mg/kg/injection, schedule: Q01DX009 (ip), vehicle: Klucel (hydroxypropylcellulose) (HPC)
[4] = dose: 400.0 mg/kg/injection, schedule: Q01DX009 (ip), vehicle: Klucel (hydroxypropylcellulose) (HPC)
[5] = dose: 100.0 mg/kg/injection, schedule: Q01DX009 (ip), vehicle: saline sonified
[6] = dose: 100.0 mg/kg/injection, schedule: Q01DX009 (ip), vehicle: saline with Tween-80
[7] = dose: 100.0 mg/kg/injection, schedule: Q04DX003 (ip), vehicle: Klucel (hydroxypropylcellulose) (HPC)
[8] = dose: 200.0 mg/kg/injection, schedule: Q01DX009 (ip), vehicle: saline sonified
[9] = dose: 200.0 mg/kg/injection, schedule: Q01DX009 (ip), vehicle: saline with Tween-80
[10] = dose: 200.0 mg/kg/injection, schedule: Q04DX003 (ip), vehicle: Klucel (hydroxypropylcellulose) (HPC)
[11] = dose: 400.0 mg/kg/injection, schedule: Q01DX009 (ip), vehicle: saline sonified
[12] = dose: 400.0 mg/kg/injection, schedule: Q01DX009 (ip), vehicle: saline with Tween-80
[13] = dose: 400.0 mg/kg/injection, schedule: Q04DX003 (ip), vehicle: Klucel (hydroxypropylcellulose) (HPC)
[14] = dose: 100.0 mg/kg/injection, schedule: Q04DX002 (ip), vehicle: saline with Tween-80
[15] = dose: 200.0 mg/kg/injection, schedule: Q04DX002 (ip), vehicle: saline with Tween-80
[16] = dose: 400.0 mg/kg/injection, schedule: Q04DX002 (ip), vehicle: saline with Tween-80
[17] = dose: 100.0 mg/kg/injection, schedule: Q01DX001 (ip), vehicle: saline

Measured: T/C

O=C1Nc2ncnn2C1=O
inactive: dose: 100.0 mg/kg/injection, schedule: Q01DX005 (ip), vehicle: Klucel (hydroxypropylcellulose) (HPC) 98 % of control | [1] 101 % of control | [2] 93 % of control | dose: 200.0 mg/kg/injection, schedule: Q01DX005 (ip), vehicle: Klucel (hydroxypropylcellulose) (HPC) 98 % of control | [3] 93 % of control | dose: 200.0 mg/kg/injection, schedule: Q04DX002 (ip), vehicle: Klucel (hydroxypropylcellulose) (HPC) 96 % of control | dose: 400.0 mg/kg/injection, schedule: Q01DX005 (ip), vehicle: Klucel (hydroxypropylcellulose) (HPC) 98 % of control | [4] 101 % of control | dose: 400.0 mg/kg/injection, schedule: Q04DX002 (ip), vehicle: Klucel (hydroxypropylcellulose) (HPC) 104 % of control

C/C(=N\O)c1ccc2ccc3ccccc3c2c1
inactive: [5] 105 % of control | [6] 101 % of control | [7] 103 % of control | [8] 93 % of control | [9] 93 % of control | [10] 103 % of control | [11] 94 % of control | [12] 95 % of control | [13] 115 % of control

O=C(/C=C/c1ccccc1)OCc1ccccc1CN1C=CON1
inactive: dose: 25.0 mg/kg/injection, schedule: Q04DX002 (ip), vehicle: Klucel (hydroxypropylcellulose) (HPC) 115 % of control | dose: 50.0 mg/kg/injection, schedule: Q04DX002 (ip), vehicle: Klucel (hydroxypropylcellulose) (HPC) 105 % of control | [2] 105 % of control

Cc1cc(Cl)cc(Cl)c1OCC(=O)Nc1cc(Cl)ccc1Cl
inactive: [14] 90 % of control | [15] 86 % of control | [16] 86 % of control

CC(=O)OCC12CCC(O1)C1C(=O)OC(=O)C12 (centres undefined)
inactive: [1] 91 % of control | [7] 97 % of control | [3] 88 % of control | [10] 98 % of control | [4] 93 % of control | [13] 90 % of control

CC1CC(C)(C)OCO1 (centres undefined)
inactive: [7] 100 % of control | [10] 93 % of control | [13] 86 % of control

COC(=O)c1ccc(Cl)cc1OCC(=O)Nc1ccccc1
inactive: dose: 100.0 mg/kg/injection, schedule: Q01DX001 (ip), vehicle: Klucel (hydroxypropylcellulose) (HPC) 97 % of control | dose: 200.0 mg/kg/injection, schedule: Q01DX001 (ip), vehicle: Klucel (hydroxypropylcellulose) (HPC) 103 % of control | dose: 400.0 mg/kg/injection, schedule: Q01DX001 (ip), vehicle: Klucel (hydroxypropylcellulose) (HPC) 93 % of control

OC(Nc1ncccn1)C(Cl)(Cl)Cl (centres undefined)
inactive: [5] 96 % of control | [7] 95 % of control | [8] 94 % of control | [10] 102 % of control | [11] 89 % of control | [13] 101 % of control

CC(=O)OCCCCOC(C)=O
inactive: [17] 105 % of control | dose: 200.0 mg/kg/injection, schedule: Q01DX001 (ip), vehicle: saline 109 % of control | dose: 400.0 mg/kg/injection, schedule: Q01DX001 (ip), vehicle: saline 107 % of control

Cc1ccc(Cl)cc1NC(=O)Nc1ccccc1F
inactive: dose: 25.0 mg/kg/injection, schedule: Q04DX003 (ip), vehicle: saline with Tween-80 94 % of control | dose: 50.0 mg/kg/injection, schedule: Q04DX003 (ip), vehicle: saline with Tween-80 86 % of control and 91 % of control | dose: 100.0 mg/kg/injection, schedule: Q01DX001 (ip), vehicle: saline with Tween-80 92 % of control | [6] 103 % of control and 105 % of control | [14] 98 % of control and 92 % of control | dose: 100.0 mg/kg/injection, schedule: Q04DX003 (ip), vehicle: saline with Tween-80 104 % of control and 90 % of control | dose: 200.0 mg/kg/injection, schedule: Q01DX001 (ip), vehicle: saline with Tween-80 92 % of control | [9] 98 % of control and 90 % of control | [15] 95 % of control and 92 % of control | dose: 400.0 mg/kg/injection, schedule: Q01DX001 (ip), vehicle: saline with Tween-80 89 % of control | [12] 94 % of control and 92 % of control | [16] 90 % of control and 92 % of control

CCC1COC(=O)N1 (centres undefined)
inactive: dose: 25.0 mg/kg/injection, schedule: Q01DX009 (ip), vehicle: saline 102 % of control | dose: 50.0 mg/kg/injection, schedule: Q01DX001 (ip), vehicle: saline 95 % of control | dose: 50.0 mg/kg/injection, schedule: Q01DX009 (ip), vehicle: saline 105 % of control | [17] 100 % of control

CCOC(=O)CCc1c(C(=O)OCC)[nH]c(C)c1C(=O)OCc1ccccc1
inactive: [7] 100 % of control | [10] 101 % of control | [13] 108 % of control

COC1OC(C(O)CO)C(O)C(O)C1O (centres undefined)
inactive: [6] 110 % of control | [9] 100 % of control | [12] 104 % of control

O=c1ccc2ccccc2n1Cc1ccc2ccccc2n1
inactive: dose: 12.5 mg/kg/injection, schedule: Q01DX001 (ip), vehicle: acetone 100 % of control | dose: 12.5 mg/kg/injection, schedule: Q04DX003 (ip), vehicle: saline 96 % of control | dose: 25.0 mg/kg/injection, schedule: Q01DX001 (ip), vehicle: acetone 92 % of control | dose: 25.0 mg/kg/injection, schedule: Q04DX003 (ip), vehicle: saline 91 % of control | dose: 50.0 mg/kg/injection, schedule: Q01DX001 (ip), vehicle: acetone 95 % of control | dose: 50.0 mg/kg/injection, schedule: Q04DX003 (ip), vehicle: saline 96 % of control | dose: 75.0 mg/kg/injection, schedule: Q04DX003 (ip), vehicle: saline 95 % of control | dose: 100.0 mg/kg/injection, schedule: Q01DX001 (ip), vehicle: other 97 % of control | [6] 104 % of control | dose: 100.0 mg/kg/injection, schedule: Q04DX003 (ip), vehicle: other 109 % of control | dose: 115.0 mg/kg/injection, schedule: Q04DX003 (ip), vehicle: saline 90 % of control | dose: 200.0 mg/kg/injection, schedule: Q01DX001 (ip), vehicle: other 100 % of control | [9] 95 % of control | dose: 200.0 mg/kg/injection, schedule: Q04DX003 (ip), vehicle: other 104 % of control | dose: 400.0 mg/kg/injection, schedule: Q01DX001 (ip), vehicle: other 94 % of control | [12] 101 % of control | dose: 400.0 mg/kg/injection, schedule: Q04DX003 (ip), vehicle: other 104 % of control

O=C(CCN1CC1)OC1CCCCCC1
inactive: dose: 6.25 mg/kg/injection, schedule: Q01DX009 (ip), vehicle: Klucel (hydroxypropylcellulose) (HPC) 100 % of control | dose: 12.5 mg/kg/injection, schedule: Q01DX009 (ip), vehicle: Klucel (hydroxypropylcellulose) (HPC) 100 % of control | dose: 25.0 mg/kg/injection, schedule: Q01DX009 (ip), vehicle: Klucel (hydroxypropylcellulose) (HPC) 95 % of control | [7] 104 % of control | [10] 101 % of control
